The values below are quoted from earlier work in patent US9096579B2, “Amino-indolyl-substituted imidazolyl-pyrimidines and their use as medicaments” (Boehringer Ingelheim International GmbH, priority 2012, dated 2015).

Series [1] relates to platelet counts in patients with ITP. To be noted: single center open label study.
In series [2] the test system is atherosclerotic plaque size. The conditions noted are these: murine model of atherosclerosis.

Molecules are shown by their SMILES.

For `COc1cc(Nc2ncc(F)c(Nc3ccc4c(n3)N(COP(=O)(O)O)C(=O)C(C)(C)O4)n2)cc(OC)c1OC` [R788 (R406)], the platelet counts entry in series [1] is listed as “improved platelet counts”. In series [2], the atherosclerotic plaque size result is listed as “reduced atherosclerotic plaque size”.
